Source: patent US11919904B2, “Sulfonylamide compounds as CDK2 inhibitors” (Incyte Corporation, priority 2019, dated 2024)

Legend:
[1] = tested on: CCNE1-amplified cell lines (COV318, OVCAR3); test: Cell cycle analysis by FACS in CCNE1-amplified cell lines; type: cell-based, human; settings: COV318 and OVCAR3; 16 hours after treatment; compared to DMSO
Experimental: (§1) The effect of CDK4/6-inhibition in CCNE1-amplified versus CCNE1-non-amplified cell lines was evaluated.
(§2) A similar experiment was performed in a larger set of CCNE1-amplified cell lines (COV318 and OVCAR3) and CCNE1-non-amplified cell lines (COV504, OV56, and Igrov1) (FIG. 6).
(§3) Bulk DNA was stained with DAPI. Compound-treated and DMSO treated control cells were acquired with CytoFlex (Beckman Coulter) and were analyzed using the FlowJo software. For cell cycle analysis of cells with siRNA knockdown, 72 hours after siRNA transfection, cells exposed to 10 μM EdU for 3 hours before detection of Click-iT Alexa Fluor® 647 azide kit.

[2] = tested on: Rb phosphorylation at S780 in CCNE1-non-amplified cell lines (COV504 and OV56); test: Western blot of Rb phosphorylation at S780 in CCNE1-non-amplified cell lines; type: cell-based, human; settings: one or 15 hours after treatment, various doses
Experimental: The effect of CDK4/6-inhibition on Rb phosphorylation at S780 in CCNE1-amplified versus CCNE1-non-amplified cell lines was evaluated. […] One or 15 hours after treatment, the cells were harvested and total protein was extracted and analyzed by western blot (FIG. 8).
Whole cell extracts were prepared using RIPA buffer (Thermo Scientific, 89900) with a Halt Protease and Phosphatase Inhibitor Cocktail (Thermo Scientific, 78440). Protein concentration was quantified with a BCA Protein Assay Kit (Thermo Scientific, 23225) and 40 μg of protein lysates were loaded for SDS-PAGE using precast gradient gels (Bio-Rad, Hercules, No. 456-1094). Samples were diluted in 5×Laemmli buffer (300 mM Tris-HCl pH 6.8, 10% SDS (w/v), 5% 2-mercaptoethanol, 25% glycerol (v/v), 0.1% bromophenol blue w/v) and boiled for 5 minutes. […] of proteins were separated by 8-15% SDS-PAGE and transferred onto polyvinylidene fluoride (PVDF) membranes. Unspecific binding sites on the PVDF membranes were blocked with 5% non-fat milk in TBST (20 mM Tris-HCl, pH 7.6, 137 mM NaCl, 1% Tween-20). […] Images were captured by Luminescence/Fluorescence Imaging System Odyssey CLx Imager (LI-COR).

[3] = tested on: CCNE1-non-amplified cell lines (COV504, OV56, Igrov1); test: Cell cycle analysis by FACS in CCNE1-non-amplified cell lines; type: cell-based, human
Experimental: as §1, §2, §3

[4] = tested on: Rb phosphorylated on serine 780 in CCNE1 amplified COV318 cells; test: CDK2 pRb (S780) HTRF cellular assay; type: cell-based; settings: Homo sapiens, FIG. 10B
Experimental: CDK2 pRb ([…]) HTRF cellular assay enables the quantitative detection of Rb phosphorylated on […] in CCNE1 amplified COV318 cells. The assay comprised two antibodies: Europium cryptate labeled anti-Phospho-Rb […] antibody (donor) and d2 labeled anti-Rb antibody (acceptor). […] The final concentrations of compounds start from 3 μM. […] After 2 h of incubation at room temperature, HTRF signals were measured on the PHERAstar microplate reader (BMG Labtech), using 340 nm as excitation wavelength, a 620 nm filter for the Europium donor fluorescence, and a 665-nm filter for the acceptor fluorescence detection. HTRF signals were calculated as the HTRF ratio (ratio of fluorescence measured at 665 nm and 620 nm)×10000.

## CC(=O)c1c(C)c2cnc(Nc3ccc(N4CCNCC4)cn3)nc2n(C2CCCC2)c1=O [palbociclib]
[1]
  percentage of cells at the S phase: not significantly different
[2]
  Rb phosphorylation at S780: blocked Rb phosphorylation at S780
[3]; COV504, OV56, Igrov1, 16 hours after treatment, compared to DMSO
  percentage of cells at the S phase: decreased in CCNE1-non-amplified cell lines in a dose-dependent fashion
[3]; COV504 cells, sixteen hours after treatment, increasing concentrations
  proliferation (cell cycle analysis by FACS): dose-dependent inhibition of the proliferation
[4]
  IC50: > 3000 nM
